Data published in PubChem BioAssay AID2060493 (Molecular Pharmacology Branch, DTP, NCI, 2025).

Tested on: 616215-338-R-J1-PDC tumor spheroids, viability
Assay: Anticancer human tumor 616215-338-R-J1-PDC patient-derived colon adenocarcinoma cell line growth inhibition [GQUAD]
Details: spheroids with HUVEC and MSC; for IC50: curve of first compound; for viability, T/C: stronger effect = lower value
Summary of the method: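 Tumor cells were grown as complex spheroids with HUVEC endothelial cells and mesenchymal stem cells as stroma. G-quadruplex stabilizers were combined with targeted agents over half-log dilutions from near the clinical Cmax, or from 10 microM.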

[1] = second compound 0.0316 µM, first compound 0.0316 µM
[2] = second compound 0.0316 µM, first compound 0.1 µM
[3] = second compound 0.0316 µM, first compound 0.316 µM
[4] = second compound 0.0316 µM, first compound 1 µM
[5] = second compound 0.0316 µM, first compound 3.16 µM
[6] = second compound 0.0316 µM, first compound 10 µM
[7] = second compound 0.1 µM, first compound 0.0316 µM
[8] = second compound 0.1 µM, first compound 0.1 µM
[9] = second compound 0.1 µM, first compound 0.316 µM
[10] = second compound 0.1 µM, first compound 1 µM
[11] = second compound 0.1 µM, first compound 3.16 µM
[12] = second compound 0.1 µM, first compound 10 µM
[13] = second compound 0.316 µM, first compound 0.0316 µM
[14] = second compound 0.316 µM, first compound 0.1 µM
[15] = second compound 0.316 µM, first compound 0.316 µM
[16] = second compound 0.316 µM, first compound 1 µM
[17] = second compound 0.316 µM, first compound 3.16 µM
[18] = second compound 0.316 µM, first compound 10 µM
[19] = second compound 1 µM, first compound 0.0316 µM
[20] = second compound 1 µM, first compound 0.1 µM
[21] = second compound 1 µM, first compound 0.316 µM
[22] = second compound 1 µM, first compound 1 µM
[23] = second compound 1 µM, first compound 3.16 µM
[24] = second compound 1 µM, first compound 10 µM
[25] = second compound 3.16 µM, first compound 0.0316 µM
[26] = second compound 3.16 µM, first compound 0.1 µM
[27] = second compound 3.16 µM, first compound 0.316 µM
[28] = second compound 3.16 µM, first compound 1 µM
[29] = second compound 3.16 µM, first compound 3.16 µM
[30] = second compound 3.16 µM, first compound 10 µM
[31] = second compound 10 µM, first compound 0.0316 µM
[32] = second compound 10 µM, first compound 0.1 µM
[33] = second compound 10 µM, first compound 0.316 µM
[34] = second compound 10 µM, first compound 1 µM
[35] = second compound 10 µM, first compound 3.16 µM
[36] = second compound 10 µM, first compound 10 µM
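Note: spheroids exposed to agents for 7 days before readout.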
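Throughout, for viability, T/C: percent viability relative to DMSO vehicle control wells taken as 100%.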

## C=CCn1c(=O)c2cnc(Nc3ccc(N4CCN(C)CC4)cc3)nc2n1-c1cccc(C(C)(C)O)n1 + Cc1[nH]c2ccc(F)cc2c1-c1nc2c3cccnc3c3ncccc3c2[nH]1
Second compound 0.0316 µM
  IC50: 330 nM
Second compound 0.1 µM
  IC50: 352 nM
Second compound 0.316 µM
  IC50: 315 nM
Second compound 1 µM
  IC50: 342 nM
Second compound 3.16 µM
  IC50: 256 nM
Second compound 10 µM
  IC50: 227 nM
[1]
  viability, T/C: 95.5%
[2]
  viability, T/C: 90.1%
[3]
  viability, T/C: 48.3%
[4]
  viability, T/C: 25.4%
[5]
  viability, T/C: 12.4%
[6]
  viability, T/C: 12.2%
[7]
  viability, T/C: 97.4%
[8]
  viability, T/C: 99.9%
[9]
  viability, T/C: 50.6%
[10]
  viability, T/C: 28.4%
[11]
  viability, T/C: 17.9%
[12]
  viability, T/C: 11.9%
[13]
  viability, T/C: 106%
[14]
  viability, T/C: 99.6%
[15]
  viability, T/C: 47.5%
[16]
  viability, T/C: 25.4%
[17]
  viability, T/C: 12.9%
[18]
  viability, T/C: 12.4%
[19]
  viability, T/C: 103%
[20]
  viability, T/C: 104%
[21]
  viability, T/C: 52%
[22]
  viability, T/C: 18.6%
[23]
  viability, T/C: 14.2%
[24]
  viability, T/C: 9.69%
[25]
  viability, T/C: 98.4%
[26]
  viability, T/C: 87.7%
[27]
  viability, T/C: 40.9%
[28]
  viability, T/C: 15.8%
[29]
  viability, T/C: 11.1%
[30]
  viability, T/C: 6.8%
[31]
  viability, T/C: 95.3%
[32]
  viability, T/C: 88.3%
[33]
  viability, T/C: 34%
[34]
  viability, T/C: 17.9%
[35]
  viability, T/C: 11.2%
[36]
  viability, T/C: 6.71%

## Cc1cccc(N(C)C(=O)C2C(O)CCN2c2nc(C)cc(C(F)(F)F)c2C#N)c1 (centres undefined) + Cc1[nH]c2ccc(F)cc2c1-c1nc2c3cccnc3c3ncccc3c2[nH]1
Second compound 0.0316 µM
  IC50: > 10000 nM
Second compound 0.1 µM
  IC50: > 10000 nM
Second compound 0.316 µM
  IC50: > 10000 nM
Second compound 1 µM
  IC50: > 10000 nM
Second compound 3.16 µM
  IC50: > 10000 nM
Second compound 10 µM
  IC50: > 10000 nM
[1]
  viability, T/C: 92.8%
[2]
  viability, T/C: 102%
[3]
  viability, T/C: 93.7%
[4]
  viability, T/C: 87.6%
[5]
  viability, T/C: 101%
[6]
  viability, T/C: 104%
[7]
  viability, T/C: 99.4%
[8]
  viability, T/C: 93.8%
[9]
  viability, T/C: 99.1%
[10]
  viability, T/C: 104%
[11]
  viability, T/C: 99.6%
[12]
  viability, T/C: 95.5%
[13]
  viability, T/C: 91%
[14]
  viability, T/C: 92.1%
[15]
  viability, T/C: 99.4%
[16]
  viability, T/C: 100%
[17]
  viability, T/C: 97.6%
[18]
  viability, T/C: 96.6%
[19]
  viability, T/C: 103%
[20]
  viability, T/C: 92%
[21]
  viability, T/C: 96.7%
[22]
  viability, T/C: 93.9%
[23]
  viability, T/C: 105%
[24]
  viability, T/C: 103%
[25]
  viability, T/C: 94.4%
[26]
  viability, T/C: 87%
[27]
  viability, T/C: 96.5%
[28]
  viability, T/C: 91.6%
[29]
  viability, T/C: 104%
[30]
  viability, T/C: 107%
[31]
  viability, T/C: 108%
[32]
  viability, T/C: 94.4%
[33]
  viability, T/C: 96.2%
[34]
  viability, T/C: 88%
[35]
  viability, T/C: 107%
[36]
  viability, T/C: 86.5%
